Experimental data taken from publication PMC7139703, “Thiopurine Derivative-Induced Fpg/Nei DNA Glycosylase Inhibition: Structural, Dynamic and Functional Insights” (International Journal of Molecular Sciences, 2020).

Target: T1, LlFpg/DNA complex C2 (Lactococcus lactis subsp. cremoris, UniProt P42371)
T1 construct: made in house; host or cells: E. coli BH540 (fpg defective)
T1 sequence (P42371 2-273 limits assumed): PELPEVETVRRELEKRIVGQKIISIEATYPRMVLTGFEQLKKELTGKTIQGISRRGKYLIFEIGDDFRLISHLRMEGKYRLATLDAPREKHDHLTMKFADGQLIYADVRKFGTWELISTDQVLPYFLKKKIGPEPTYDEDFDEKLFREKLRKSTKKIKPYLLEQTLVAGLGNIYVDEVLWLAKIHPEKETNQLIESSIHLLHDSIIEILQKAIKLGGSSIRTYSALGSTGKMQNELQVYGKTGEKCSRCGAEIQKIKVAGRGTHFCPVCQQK
Assay: EMSA, Fpg DNA binding to 14-mer [THF:C] duplex, non-specific complex C2 (Fpg/DNA 2/1)
Details: for effect on stability of preformed complex C2 in the presence of TCEP: [1/1] molar ratio TCEP/compound (1 mM each), Figure S6; for number of TXn equivalents per one protein equivalent for 50% inhibition of DNA binding activity, C2: value in parentheses, 10 nM Fpg
From the text: To complement this study, we examined the effect of TXn on the binding of Fpg to a short DNA duplex containing a tetrahydrofuran (THF), a non-cleavable AP site analog. The enzyme specifically recognizes THF and forms a stable abortive complex with DNA [18, 34, 35, 36]. […] A representative titration experiment (with and without TCEP) of the 14-mer [THF:C] Fpg formed two stable complexes with this short DNA probe that were easily observed by EMSA: a high-affinity complex C1 corresponding to the lesion recognition complex (LRC), with nanomolar affinity, and a complex C2 only observed at higher Fpg concentrations. C2 results in C1 titration by a second Fpg molecule. This finding illustrates that the crystal structure of Fpg bound to 8-oxoG-carbanucleotide-containing DNA [38] (Figure S5). The stability of each preformed complex was then examined by EMSA in the presence of 2TX or TXn. […] The enzyme inactivation mediated by 2TX through ZnF oxidation that directly affects the DNA binding properties of the enzyme is also in agreement with this last observation.
The inhibitor concentrations that induced the loss of the half-maximal binding (IC50app^B) were determined from these curves and are reported in Table 1. IC50app^B compared well with IC50app^A. As observed above for the enzyme activity, strong reducers, such as TCEP, abolished the negative effects of 2TX and TXn on Fpg/DNA complex stability and formation. These findings again indicate that inhibition by thio-compounds essentially relies on the oxidation of the Fpg ZnF (for an example, see experiment with TX19, Figure S4). […] This troubling and unexpected observation led us to evaluate this effect with the TXn small library compounds. To prevent a side effect due to a possible partial reduction by TCEP, we performed EMSA in the presence of a 6.7-fold molar excess of TCEP with respect to 2TX and TXn after complex formation (Figure 3).
Figure 3 Impact of TXn on the non-specific Fpg/DNA complex C2 stability in highly reducing conditions. EMSA was performed as described in the ‘Material & Methods’, except TCEP was added at a 2 mM final concentration in each binding assay. (a) Representative experiment at 0.3 mM 2TX and more efficient TXn; (b) Dose-response with the best TXn. Upper panel: Representative EMSA experiment with TX10. Lower panel: Dose-response curves with the indicated TXn.
The DNA binding activity was measured using EMSA [37]. Briefly, 0.1 nM of the 5′-labeled 14-mer [THF:C] (see above) was incubated with the enzyme at 4 °C for 30 min in 25 mM HEPES/NaOH (pH 7.5), 150 mM NaCl, 5% glycerol, 0.1 mg/mL BSA and 8% DMSO. The incubation mixture was then loaded onto a native 10% polyacrylamide gel (Acryl/Bis 19/1) and electrophoresed at 25 V/cm for 90 min at 4 °C. After electrophoresis, the gels were dried and exposed overnight for autoradiography using a Typhoon imager and quantified with ImageQuant software. To evaluate the inhibitor effect of 2TX/TXn on the DNA binding activity of each Fpg/Nei enzyme, we first determined the experimental conditions required to bind 50% of the DNA probes without an inhibitor in the presence of 8% DMSO (limiting enzyme concentration). Under these conditions, we obtained the half-maximal DNA binding 0.25, 7 and 5 nM of Fpg, hNeil1 and mvNei1. We used this limited enzyme concentrations to evaluate the inhibitor effect of 2TX/TXn on the enzyme DNA binding activity. This effect was determined by the addition of the thio-compound in the pre-equilibrium mixture of the enzyme and DNA probe (30 min) and incubated for an additional 30 min at 4 °C. For the best inhibitors of Fpg, a dose-response curve was established from at least three independent experiments and the IC50 was determined (IC50^B, Table 1). […]
Rieux et al. Thiopurine derivative-induced Fpg/Nei DNA glycosylase inhibition:
structural, dynamic and functional insights
Figure S6. […]

| SMILES | effect on stability of preformed complex C2 in the presence of TCEP | number of TXn equivalents per one protein equivalent for 50% inhibition of DNA binding activity, C2 |
| --- | --- | --- |
| O=c1[nH]c(=S)[nH]c2nc[nH]c12 [Compound 2TX, 2-thioxanthine, reference compound] | moderate effect | NA (9.7) |
| O=c1[nH]c(=S)[nH]c2[nH]c(=S)[nH]c12 [TX19] | moderate effect | NA (2) |
| O=c1[nH]c2[nH]c(=S)[nH]c(=O)c2[nH]1 [TX14, 2-thio-6,8-dioxopurine] | moderate effect | NA (2.8) |
| FC(F)(F)c1nc(S)c2nc[nH]c2n1 [TX13, 2-trifluoromethyl-6-thiopurine] | strongly destabilized | NA (1.3) |
| Nc1ncnc2[nH]c(S)nc12 [TX27] | strongly destabilized | NA (4) |
